Results taken from the NIST ThermoML archive (doi:10.1021/acs.jced.6b00813).
± gives the expanded uncertainty stated by the source.

How the values were obtained:
[1] = wn = mass fraction of the nth substance listed; settings: 101.3 kPa, Liquid, Pycnometric method
[2] = Crystal; Titration method

## [Ca+2].[Cl-].[Cl-] [calcium chloride] + O
[1]; 273.15 K, w1 = 0.373
  mass density: 1427 ± 2 kg/m3

## O=[PH2][O-].O=[PH2][O-].[Ca+2] [calcium hypophosphite] + O
[1]; 268.75 K, w1 = 0.1397
  mass density: 1133 ± 2 kg/m3
[1]; 270.15 K, w1 = 0.0909
  mass density: 1089 ± 2 kg/m3
[1]; 271.4 K, w1 = 0.0476
  mass density: 1047 ± 2 kg/m3
[1]; 272.15 K, w1 = 0.0244
  mass density: 1024 ± 2 kg/m3
[1]; 273.15 K, w1 = 0.1381
  mass density: 1132 ± 2 kg/m3
[1]; 283.15 K, w1 = 0.1362
  mass density: 1131 ± 2 kg/m3
[1]; 293.15 K, w1 = 0.1341
  mass density: 1128 ± 2 kg/m3
[1]; 303.15 K, w1 = 0.1322
  mass density: 1125 ± 2 kg/m3
[1]; 313.15 K, w1 = 0.1304
  mass density: 1121 ± 2 kg/m3
[1]; 323.15 K, w1 = 0.1293
  mass density: 1117 ± 2 kg/m3
[1]; 333.15 K, w1 = 0.1292
  mass density: 1114 ± 2 kg/m3
[1]; 343.15 K, w1 = 0.1292
  mass density: 1111 ± 3 kg/m3
[1]; 353.15 K, w1 = 0.1295
  mass density: 1107 ± 3 kg/m3
[1]; 363.15 K, w1 = 0.1297
  mass density: 1103 ± 2 kg/m3
[1]; 373.15 K, w1 = 0.1302
  mass density: 1103 ± 2 kg/m3
[1]; 376.95 K, w1 = 0.1302
  mass density: 1103 ± 2 kg/m3

## O [water]
[2]
  Normal melting temperature: 0.00 ± 0.77 °C

## O [water] + O=[PH2][O-].O=[PH2][O-].[Ca+2]
[1]; 273.15 K, w2 = 0
  mass density: 999 ± 4 kg/m3

## O=[PH2][O-].[Na+] [sodium phosphinate] + O
[1]; 273.15 K, w1 = 0.4776
  mass density: 1381 ± 2 kg/m3
